What was measured:
[1] = HD50 (anaesthesia, loss of righting reflex) and LD50 in mice, intravenous; conditions: mouse, in vivo; for LD50: mice
Description: (§1) Each mouse is various groups of 10 mice is injected intravenously with a 1% sterile solution of 2,6-diisopropylphenol as described in Example 14, the total dose administered being the same within any group but differing between groups.

mice [2] = assay: as above; conditions: Mus musculus, read-out: HD50 (dose required to cause anaesthesia, loss of righting reflex for at least 30 seconds, in 5 out of 10 mice)
Description: as §1

mice [3] = assay: Mean sleeping time of mice after twice the HD50, intravenous; format: in vivo, mouse; conditions: for 2,6-diisopropylphenol 27 mg./kg., standard deviation ±0.59 minutes
Description: Each of 10 mice is injected intravenously with 27 mg./kg. bodyweight (twice the HD50) of 2,6-diisopropylphenol as a 1% sterile solution described in Example 14.

[4] = test system: mice, rats, rabbits, cats, rhesus or pigtail monkeys, pigs, sheep, horses, or cattle; assay: Intravenous anaesthesia in various animal species; format: in vivo
Description: Anaesthesia is produced in less than 1 minute and lasts, depending upon the species and the dose, from 3 to 25 minutes. […] The compound may also be administered intramuscularly.

pigtail monkey = conditions: 2% solution
Description: A 2% sterile solution of 2,6-diisopropylphenol prepared as described in Example 14 is administered intravenously to a pigtail monkey weighing 6.8 kg. at a rate of 0.05 mg. of phenol/kg. bodyweight/second until a dose of 34 mg. (5 mg./kg. bodyweight) of the phenol has been injected.

cat [5] = conditions: 10 mg./kg. i.v. plus four supplementary i.v. injections each of 2.0 mg./kg.
From the text: A cat weighing 2.5 kg. is anaesthetised exactly as described in Example 17.

cat [6] = conditions: 10 mg./kg. i.v., topical anaesthetic applied to the larynx
From the text: A cat is anaesthetised exactly as described in Example 17. […] Anaesthesia is thereafter maintained with an inhalation anaesthetic delivered through an Ayre's T-piece circuit.

cat [7] = assay: Intramuscular anaesthesia in a cat (Example 20); format: in vivo; conditions: 35 mg./kg. intramuscularly
Description: Righting reflexes are lost after 15 minutes, after a further 25 minutes anaesthesia has deepened sufficiently to allow intubation to be carried out. Muscle tone returns after a further 60 minutes and thereafter recovery is uneventful.

cat [8] = conditions: 5 cats, 2% solution
[9] = LD50 (dose required to kill 5 out of 10 mice), intravenous, 2,6-diisopropylphenol as 1% sterile solution of Example 14
[10] = intravenous, single dose of between 2.5 and 10 mg. per kg. bodyweight

`CC(C)c1cccc(C(C)C)c1O` [2,6-diisopropylphenol] showed a selectivity ratio [1] of 4.14, an LD50 [1, 9] of 56 mg/kg and an LD50 ([1]; LD50 dose in mice (general description)) of 65 mg/kg. The ED50 (mice [2]) was 13.5 mg/kg, the “Mean sleeping time after twice the HD50” value (mice [3]) was 4.29 min and the Quality of recovery ([4]; all animals, intravenous, 2.5 to 10 mg. per kg.) was “normal and rapid”. The Adverse side-effects ([4]; at anaesthetic doses) was “no adverse side-effects are noted”, the “Quality of anaesthesia produced” value [4, 10] was “smooth and rapid anaesthesia” and the “Time in which anaesthesia is produced” value [4, 10] was “less than 1 minute”. For the same compound, the Induction of anaesthesia (pigtail monkey; 5 mg./kg. i.v. at 0.05 mg./kg./second) was “smooth and rapid”, the Duration of anaesthesia (pigtail monkey; 5 mg./kg. i.v.) was “approximately 6 minutes” and the Muscle relaxation (pigtail monkey; 5 mg./kg. i.v.) was “muscle relaxation is produced”. The Quality of recovery (pigtail monkey; 5 mg./kg. i.v.) was “rapid”, the Spinal reflexes (pigtail monkey; 5 mg./kg. i.v.) was “spinal reflexes are depressed” and the “Time after induction at which recovery is almost complete” value (pigtail monkey; 5 mg./kg. i.v.) was 16 min. The “Quality of recovery after the operation” value (cat [5]) was “rapid”, the “Time after completion of the operation until cat is able to stand” value (cat [5]) was 35 min and the “Maintenance of anaesthesia during 45 minute laparotomy” value (cat [5]; 2% solution) was “anaesthesia is maintained during that time”. The Depth of anaesthesia (cat [6]) was “sufficient depth to allow intubation of the trachea”, the “Further time (after intubation depth) until muscle tone returns” value (cat [7]; 2% solution) was 60 min and the “Further time after loss of righting reflexes until anaesthesia is deep enough for intubation” value (cat [7]; 2% solution) was 25 min. For the same compound, the Quality of recovery (cat [7]; 2% solution) was “uneventful”, the “Time to loss of righting reflexes” value (cat [7]; 2% solution) was 15 min and the “Pain or lesion at the site of injection” value (cat [7]; during the subsequent 7 days) was “No pain or lesion at the site of injection is observed”. The Induction of anaesthesia (cat [8]; 10 mg./kg. i.v. at 0.05 mg./kg./second) was “rapid and free from excitment”, the Muscle relaxation (cat [8]; 10 mg./kg. i.v.) was “muscle relaxation is produced” and the “Quality of further recovery” value (cat [8]; 10 mg./kg. i.v.) was “smooth and rapid”. For the same compound, the Spinal reflexes (cat [8]; 10 mg./kg. i.v.) was “spinal reflexes are depressed”, the “Time to return of response to painful stimulation” value (cat [8]; 10 mg./kg. i.v.) was “approximately 10 minutes” and the “Mean time from induction to reappearance of righting reflexes” value (cat [8]; 10 mg./kg. i.v., standard deviation ±7.35 minutes) was 34 min. For the same compound, the “Mean time after induction until cat is able to stand again” value (cat [8]; 10 mg./kg. i.v., ±10.29 minutes) was 42.6 min.

Work on `CCCC(C)C1(CC)C(=O)NC(=S)NC1=O` (centres unmarked) [thiopentone sodium, reference compound] yielded a selectivity ratio [1] of 4.26, an LD50 [1, 9] of 100 mg/kg and an ED50 (mice [2]) of 23.5 mg/kg. For the same compound, the “Mean sleeping time after twice the HD50” value (mice [3]) was 5.97 ± 1.63 min.

Reference: patent US4452817A, “Anaesthetic compositions containing 2,6-diisopropylphenol” (Imperial Chemical Industries PLC, priority 1974, dated 1984)
